Earlier results on one compound are cited in US20050154022A1, “4-aryl piperidines” (H. Lundbeck A/S, priority 2004, published 2005).

Holding throughout (settings): see Borowsky et al. (2002)
In data set [1] the test system is rat.
Another data set relates to guinea pig.
Data set [2] has as its system rat. This is another data set of the same source.

As for `COCC1=C(C(=O)OC)[C@H](c2ccc(F)c(F)c2)N(C(=O)NCCCN2CCC(c3cccc(NC(C)=O)c3)CC2)C(=O)N1` [SNAP-7941], the “effect in rat social interaction test (animal model of depression/anxiety)” value in the data set with rat [1] was “effects similar to clinically used antidepressants and anxiolytics”. Moreover, in the data set on guinea pig, the “effect in guinea pig maternal-separation vocalization test (animal model of depression/anxiety)” value was “effects similar to clinically used antidepressants and anxiolytics”. The “effect in rat forced-swim test (animal model of depression/anxiety)” value in the data set with rat [2] was “effects similar to clinically used antidepressants and anxiolytics”.
